# Earlier results in patent US11147268B2, “Food contact surface sanitizing liquid” (THE CLOROX COMPANY, priority 2015, dated 2021).
Vapor Pressure mmHg @ 20° C. [mmHg],Vapor Pressure mmHg (@25° C.),SMILES
0.07,–,"CC(O)CO (centres unmarked) [1,2, propylene glycol]"
–,0.021 (@25° C.) mmHg,"CC(CO)CO [2-methyl 1,3 propanediol]"
43,–,CCO [Ethanol]
33,–,CC(C)O [Isopropyl alcohol]

SMILES,Vapor Pressure mmHg @ 20° C. [mmHg],Vapor Pressure mmHg (@25° C.)
"OCCCO [1,3 propanediol]",0.8,–
